The results in this text go back to ChEMBL document CHEMBL5291721, “A preclinical secondary pharmacology resource illuminates target-adverse drug reaction associations of marketed drugs” (Nat Commun, 2023).

Some targets named below: D(3) dopamine receptor (Homo sapiens, UniProt P35462); Histamine H3 receptor (Homo sapiens, UniProt Q9Y5N1); D(1A) dopamine receptor (Homo sapiens, UniProt P21728); Mu-type opioid receptor (Homo sapiens, UniProt P35372).
The next test has as its target T1, Thromboxane A2 receptor (Homo sapiens, UniProt P21731).
T1 sequence (P21731 whole entry): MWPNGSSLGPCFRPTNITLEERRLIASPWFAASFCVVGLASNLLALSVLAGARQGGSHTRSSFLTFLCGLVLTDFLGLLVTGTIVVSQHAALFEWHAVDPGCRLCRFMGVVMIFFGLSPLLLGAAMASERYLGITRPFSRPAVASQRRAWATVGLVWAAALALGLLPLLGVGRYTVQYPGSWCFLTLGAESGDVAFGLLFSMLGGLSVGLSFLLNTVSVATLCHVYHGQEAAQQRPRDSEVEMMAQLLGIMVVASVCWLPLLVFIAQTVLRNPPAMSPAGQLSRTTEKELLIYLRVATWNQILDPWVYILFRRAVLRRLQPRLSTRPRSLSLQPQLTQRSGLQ

Another test addresses Acetylcholinesterase (Homo sapiens, UniProt P22303). It counts as functional.
For test [1], the target named is Voltage-gated inwardly rectifying potassium channel KCNH2 (Homo sapiens, UniProt Q12809). Type of test: functional. Conditions: read-out: AC50.
In test [2] the target is T2, Alpha-2A adrenergic receptor (Homo sapiens, UniProt P08913).
T2 sequence (P08913 whole entry): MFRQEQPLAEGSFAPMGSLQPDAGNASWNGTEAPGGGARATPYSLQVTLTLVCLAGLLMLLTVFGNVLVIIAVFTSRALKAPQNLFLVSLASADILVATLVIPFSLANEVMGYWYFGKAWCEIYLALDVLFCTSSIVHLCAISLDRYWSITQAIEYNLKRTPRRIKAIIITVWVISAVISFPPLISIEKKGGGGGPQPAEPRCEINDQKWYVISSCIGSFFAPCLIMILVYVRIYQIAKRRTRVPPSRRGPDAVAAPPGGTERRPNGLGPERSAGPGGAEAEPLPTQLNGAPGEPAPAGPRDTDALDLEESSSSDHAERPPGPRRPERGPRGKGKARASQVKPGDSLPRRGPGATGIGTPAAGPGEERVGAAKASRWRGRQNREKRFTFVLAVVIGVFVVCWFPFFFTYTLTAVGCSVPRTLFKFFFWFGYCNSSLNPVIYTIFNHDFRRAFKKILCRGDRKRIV

Test [3] has as its target T3, Alpha-1A adrenergic receptor (Homo sapiens, UniProt P35348).
T3 sequence (P35348 whole entry): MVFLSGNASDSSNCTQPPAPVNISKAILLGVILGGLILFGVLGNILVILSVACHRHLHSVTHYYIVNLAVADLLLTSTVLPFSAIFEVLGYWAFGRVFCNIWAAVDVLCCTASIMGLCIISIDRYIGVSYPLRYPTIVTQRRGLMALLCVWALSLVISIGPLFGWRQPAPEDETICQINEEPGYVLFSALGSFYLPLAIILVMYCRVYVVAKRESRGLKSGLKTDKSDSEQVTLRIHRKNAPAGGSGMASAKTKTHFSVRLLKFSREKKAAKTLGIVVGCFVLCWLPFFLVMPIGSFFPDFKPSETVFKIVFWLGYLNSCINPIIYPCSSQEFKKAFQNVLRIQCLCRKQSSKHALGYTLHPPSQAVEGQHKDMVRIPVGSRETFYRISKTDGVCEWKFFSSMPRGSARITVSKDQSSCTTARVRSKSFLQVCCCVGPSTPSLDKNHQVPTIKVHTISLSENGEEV
It counts as functional, cell-based.

Test [4] has as its target Sodium-dependent dopamine transporter (Homo sapiens, UniProt Q01959).
Test [5] concerns the target Gamma-aminobutyric acid receptor subunit alpha-1/alpha-2/beta-2/gamma-2 (Homo sapiens, UniProt P14867+P18507+P47869+P47870). It counts as protein-complex assay.
Test [6] addresses T4, Amine oxidase [flavin-containing] A (Homo sapiens, UniProt P21397).
T4 sequence (P21397 whole entry): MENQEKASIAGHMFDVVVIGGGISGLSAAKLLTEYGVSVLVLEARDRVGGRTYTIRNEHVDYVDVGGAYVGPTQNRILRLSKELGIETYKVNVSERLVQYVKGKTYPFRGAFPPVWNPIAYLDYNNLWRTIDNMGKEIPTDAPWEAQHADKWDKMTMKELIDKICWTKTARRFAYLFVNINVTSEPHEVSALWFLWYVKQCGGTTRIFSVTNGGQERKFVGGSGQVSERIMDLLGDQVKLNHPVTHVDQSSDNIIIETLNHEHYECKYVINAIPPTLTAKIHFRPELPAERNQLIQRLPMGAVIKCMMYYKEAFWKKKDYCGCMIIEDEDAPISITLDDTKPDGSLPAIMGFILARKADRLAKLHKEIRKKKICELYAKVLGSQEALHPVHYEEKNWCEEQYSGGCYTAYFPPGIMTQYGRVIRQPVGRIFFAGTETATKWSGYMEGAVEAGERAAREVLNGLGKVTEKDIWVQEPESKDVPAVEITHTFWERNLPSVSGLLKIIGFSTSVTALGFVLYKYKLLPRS
Type of test: functional.

Test [7] deals with T3, Alpha-1A adrenergic receptor. It counts as functional, cell-based. This is another data set of the same source.
Test [8] concerns the target Sodium-dependent noradrenaline transporter (Homo sapiens, UniProt P23975).
In test [9] the target is T5, Muscarinic acetylcholine receptor M2 (Homo sapiens, UniProt P08172).
T5 sequence (P08172 whole entry): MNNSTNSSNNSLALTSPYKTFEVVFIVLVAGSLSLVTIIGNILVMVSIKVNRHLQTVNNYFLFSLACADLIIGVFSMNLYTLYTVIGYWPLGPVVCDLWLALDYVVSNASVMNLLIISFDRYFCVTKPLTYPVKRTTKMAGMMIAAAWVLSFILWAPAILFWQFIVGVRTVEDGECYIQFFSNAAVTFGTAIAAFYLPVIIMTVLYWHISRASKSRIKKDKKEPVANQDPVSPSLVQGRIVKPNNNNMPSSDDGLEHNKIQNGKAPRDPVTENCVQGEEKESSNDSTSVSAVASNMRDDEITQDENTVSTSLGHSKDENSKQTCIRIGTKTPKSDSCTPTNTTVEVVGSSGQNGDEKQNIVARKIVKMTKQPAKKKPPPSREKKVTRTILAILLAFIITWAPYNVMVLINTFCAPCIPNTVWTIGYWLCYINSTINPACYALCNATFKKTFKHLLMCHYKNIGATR

Test [10] addresses 5-hydroxytryptamine receptor 2B (Homo sapiens, UniProt P41595). Type of test: functional, cell-based.
The target in test [11] is T6, 5-hydroxytryptamine receptor 1A (Homo sapiens, UniProt P08908).
T6 sequence (P08908 whole entry): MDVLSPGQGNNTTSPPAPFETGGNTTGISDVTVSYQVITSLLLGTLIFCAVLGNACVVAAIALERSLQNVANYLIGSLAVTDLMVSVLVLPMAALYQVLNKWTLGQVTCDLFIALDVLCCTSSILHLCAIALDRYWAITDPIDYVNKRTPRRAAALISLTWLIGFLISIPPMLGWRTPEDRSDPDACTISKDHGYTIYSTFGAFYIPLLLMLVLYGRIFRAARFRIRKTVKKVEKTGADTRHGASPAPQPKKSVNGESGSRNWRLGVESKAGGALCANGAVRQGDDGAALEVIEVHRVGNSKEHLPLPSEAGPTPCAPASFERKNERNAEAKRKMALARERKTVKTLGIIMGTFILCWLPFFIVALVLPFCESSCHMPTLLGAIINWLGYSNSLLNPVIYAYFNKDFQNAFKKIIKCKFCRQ

The next test concerns the target T7, Adenosine receptor A3 (Homo sapiens, UniProt P0DMS8).
T7 sequence (P0DMS8 whole entry): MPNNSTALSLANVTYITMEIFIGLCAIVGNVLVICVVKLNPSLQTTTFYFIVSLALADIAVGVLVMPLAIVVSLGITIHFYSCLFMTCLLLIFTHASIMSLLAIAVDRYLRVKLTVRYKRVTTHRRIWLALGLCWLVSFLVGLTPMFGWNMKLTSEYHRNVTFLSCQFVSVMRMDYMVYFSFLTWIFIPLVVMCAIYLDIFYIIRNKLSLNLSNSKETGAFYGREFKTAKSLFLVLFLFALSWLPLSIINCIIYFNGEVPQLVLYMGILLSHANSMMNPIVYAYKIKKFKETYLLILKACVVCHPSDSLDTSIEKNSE

The AC50 is the concentration giving half of the maximal activity seen.
Note: assay procedure not described here.

Sequence of Acetylcholinesterase (P22303 whole entry): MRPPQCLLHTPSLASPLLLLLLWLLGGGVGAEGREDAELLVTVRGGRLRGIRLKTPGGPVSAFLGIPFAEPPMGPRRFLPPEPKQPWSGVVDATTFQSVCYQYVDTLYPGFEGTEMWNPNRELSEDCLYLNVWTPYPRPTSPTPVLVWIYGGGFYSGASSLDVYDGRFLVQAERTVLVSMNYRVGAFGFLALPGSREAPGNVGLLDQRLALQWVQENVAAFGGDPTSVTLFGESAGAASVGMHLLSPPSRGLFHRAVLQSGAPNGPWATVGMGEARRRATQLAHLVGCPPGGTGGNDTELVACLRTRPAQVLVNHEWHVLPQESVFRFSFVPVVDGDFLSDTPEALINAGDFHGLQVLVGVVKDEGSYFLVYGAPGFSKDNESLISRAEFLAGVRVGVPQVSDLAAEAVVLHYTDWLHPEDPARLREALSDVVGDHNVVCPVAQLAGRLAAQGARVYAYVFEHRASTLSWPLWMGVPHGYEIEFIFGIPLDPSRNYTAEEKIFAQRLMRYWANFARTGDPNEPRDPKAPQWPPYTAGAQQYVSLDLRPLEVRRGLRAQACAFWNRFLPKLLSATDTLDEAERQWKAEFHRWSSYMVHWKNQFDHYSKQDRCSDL
Sequence of Voltage-gated inwardly rectifying potassium channel KCNH2 (Q12809 whole entry): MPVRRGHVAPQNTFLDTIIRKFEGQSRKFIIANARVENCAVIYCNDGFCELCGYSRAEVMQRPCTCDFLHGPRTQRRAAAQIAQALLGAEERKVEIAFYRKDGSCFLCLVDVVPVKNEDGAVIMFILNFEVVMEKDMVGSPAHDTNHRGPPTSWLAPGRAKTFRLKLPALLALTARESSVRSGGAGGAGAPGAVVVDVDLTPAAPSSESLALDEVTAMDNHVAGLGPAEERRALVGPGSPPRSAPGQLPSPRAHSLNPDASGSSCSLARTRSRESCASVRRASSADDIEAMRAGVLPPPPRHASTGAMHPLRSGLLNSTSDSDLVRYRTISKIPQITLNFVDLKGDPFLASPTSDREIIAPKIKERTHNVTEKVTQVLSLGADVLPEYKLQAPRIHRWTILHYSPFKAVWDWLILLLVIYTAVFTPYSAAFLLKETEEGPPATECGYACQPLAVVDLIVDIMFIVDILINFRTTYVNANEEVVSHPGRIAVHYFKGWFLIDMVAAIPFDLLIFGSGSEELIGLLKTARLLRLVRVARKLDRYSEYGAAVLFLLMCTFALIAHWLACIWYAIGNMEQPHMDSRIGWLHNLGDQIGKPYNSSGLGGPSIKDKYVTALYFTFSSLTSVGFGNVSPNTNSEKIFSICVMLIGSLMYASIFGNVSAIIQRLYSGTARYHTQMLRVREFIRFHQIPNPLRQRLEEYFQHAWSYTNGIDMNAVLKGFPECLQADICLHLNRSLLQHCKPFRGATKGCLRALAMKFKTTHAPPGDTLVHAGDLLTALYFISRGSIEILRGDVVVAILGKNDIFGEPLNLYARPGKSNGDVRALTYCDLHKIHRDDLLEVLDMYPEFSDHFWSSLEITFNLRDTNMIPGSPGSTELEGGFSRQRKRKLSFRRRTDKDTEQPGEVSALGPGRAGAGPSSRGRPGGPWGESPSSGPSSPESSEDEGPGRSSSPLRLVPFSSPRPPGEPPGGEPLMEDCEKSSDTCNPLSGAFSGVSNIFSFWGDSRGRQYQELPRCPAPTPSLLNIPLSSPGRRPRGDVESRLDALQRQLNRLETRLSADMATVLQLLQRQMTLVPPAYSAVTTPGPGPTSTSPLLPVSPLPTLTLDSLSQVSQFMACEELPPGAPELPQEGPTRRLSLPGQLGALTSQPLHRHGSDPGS
Sequence of D(3) dopamine receptor (P35462 whole entry): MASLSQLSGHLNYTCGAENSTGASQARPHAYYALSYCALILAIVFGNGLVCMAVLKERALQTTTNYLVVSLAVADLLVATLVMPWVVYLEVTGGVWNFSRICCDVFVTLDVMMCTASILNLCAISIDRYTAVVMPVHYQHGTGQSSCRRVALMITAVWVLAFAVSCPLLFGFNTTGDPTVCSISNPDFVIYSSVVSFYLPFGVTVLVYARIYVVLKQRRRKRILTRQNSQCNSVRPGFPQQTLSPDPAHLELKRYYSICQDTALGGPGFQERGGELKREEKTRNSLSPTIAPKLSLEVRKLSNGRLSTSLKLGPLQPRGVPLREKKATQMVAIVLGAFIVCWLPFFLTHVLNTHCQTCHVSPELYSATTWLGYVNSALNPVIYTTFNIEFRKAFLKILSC
Sequence of 5-hydroxytryptamine receptor 2B (P41595 whole entry): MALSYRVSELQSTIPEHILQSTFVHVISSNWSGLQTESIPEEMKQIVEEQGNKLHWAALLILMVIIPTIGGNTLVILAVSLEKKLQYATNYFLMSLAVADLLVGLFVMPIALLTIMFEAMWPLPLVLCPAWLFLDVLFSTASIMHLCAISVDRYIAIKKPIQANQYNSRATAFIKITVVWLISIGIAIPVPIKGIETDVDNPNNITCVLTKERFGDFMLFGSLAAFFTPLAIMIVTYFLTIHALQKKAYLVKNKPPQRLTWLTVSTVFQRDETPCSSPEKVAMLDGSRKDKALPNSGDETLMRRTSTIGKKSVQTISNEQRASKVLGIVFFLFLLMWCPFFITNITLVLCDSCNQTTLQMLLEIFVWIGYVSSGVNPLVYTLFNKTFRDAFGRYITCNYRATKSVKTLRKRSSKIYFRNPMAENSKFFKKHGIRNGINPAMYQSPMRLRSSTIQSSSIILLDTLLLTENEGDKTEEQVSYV
Sequence of Mu-type opioid receptor (P35372 whole entry): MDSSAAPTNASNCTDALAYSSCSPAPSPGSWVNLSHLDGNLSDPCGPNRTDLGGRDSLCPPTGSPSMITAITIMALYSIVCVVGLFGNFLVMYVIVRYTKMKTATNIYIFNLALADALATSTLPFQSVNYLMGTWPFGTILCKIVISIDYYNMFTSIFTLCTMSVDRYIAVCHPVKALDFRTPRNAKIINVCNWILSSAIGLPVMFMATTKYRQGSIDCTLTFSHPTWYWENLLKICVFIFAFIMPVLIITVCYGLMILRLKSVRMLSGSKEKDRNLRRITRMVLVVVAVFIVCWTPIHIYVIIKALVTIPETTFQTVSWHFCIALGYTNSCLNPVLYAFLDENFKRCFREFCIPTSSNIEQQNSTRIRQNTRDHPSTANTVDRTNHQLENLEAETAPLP
Sequence of D(1A) dopamine receptor (P21728 whole entry): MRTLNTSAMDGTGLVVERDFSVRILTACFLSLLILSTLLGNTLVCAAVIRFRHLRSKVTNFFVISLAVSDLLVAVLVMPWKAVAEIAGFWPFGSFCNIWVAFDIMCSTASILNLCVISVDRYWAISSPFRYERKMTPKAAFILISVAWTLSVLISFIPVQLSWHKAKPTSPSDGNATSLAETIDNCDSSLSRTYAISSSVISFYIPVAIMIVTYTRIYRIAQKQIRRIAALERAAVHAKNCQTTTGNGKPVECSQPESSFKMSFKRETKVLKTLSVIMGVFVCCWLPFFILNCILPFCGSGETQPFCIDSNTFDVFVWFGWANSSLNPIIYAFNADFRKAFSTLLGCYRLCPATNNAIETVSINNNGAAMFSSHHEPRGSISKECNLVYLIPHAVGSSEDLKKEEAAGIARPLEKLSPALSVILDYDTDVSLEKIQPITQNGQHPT
Sequence of Sodium-dependent noradrenaline transporter (P23975 whole entry): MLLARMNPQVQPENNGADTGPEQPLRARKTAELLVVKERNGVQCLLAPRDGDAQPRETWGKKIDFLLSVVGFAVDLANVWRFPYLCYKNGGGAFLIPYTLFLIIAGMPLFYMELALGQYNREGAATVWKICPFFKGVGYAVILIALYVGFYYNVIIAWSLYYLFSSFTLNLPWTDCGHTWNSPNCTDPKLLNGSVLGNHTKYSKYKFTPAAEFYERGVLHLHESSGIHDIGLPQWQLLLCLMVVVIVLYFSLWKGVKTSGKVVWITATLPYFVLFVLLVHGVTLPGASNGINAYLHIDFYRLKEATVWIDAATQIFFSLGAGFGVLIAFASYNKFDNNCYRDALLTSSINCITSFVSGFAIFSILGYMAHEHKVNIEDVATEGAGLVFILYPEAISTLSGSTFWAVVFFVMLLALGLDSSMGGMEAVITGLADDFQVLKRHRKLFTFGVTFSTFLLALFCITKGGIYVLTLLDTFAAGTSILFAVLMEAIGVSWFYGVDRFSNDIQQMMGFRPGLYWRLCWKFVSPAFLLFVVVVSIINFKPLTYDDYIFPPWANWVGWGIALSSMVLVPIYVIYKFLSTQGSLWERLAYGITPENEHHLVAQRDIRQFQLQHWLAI
Sequence of Histamine H3 receptor (Q9Y5N1 whole entry): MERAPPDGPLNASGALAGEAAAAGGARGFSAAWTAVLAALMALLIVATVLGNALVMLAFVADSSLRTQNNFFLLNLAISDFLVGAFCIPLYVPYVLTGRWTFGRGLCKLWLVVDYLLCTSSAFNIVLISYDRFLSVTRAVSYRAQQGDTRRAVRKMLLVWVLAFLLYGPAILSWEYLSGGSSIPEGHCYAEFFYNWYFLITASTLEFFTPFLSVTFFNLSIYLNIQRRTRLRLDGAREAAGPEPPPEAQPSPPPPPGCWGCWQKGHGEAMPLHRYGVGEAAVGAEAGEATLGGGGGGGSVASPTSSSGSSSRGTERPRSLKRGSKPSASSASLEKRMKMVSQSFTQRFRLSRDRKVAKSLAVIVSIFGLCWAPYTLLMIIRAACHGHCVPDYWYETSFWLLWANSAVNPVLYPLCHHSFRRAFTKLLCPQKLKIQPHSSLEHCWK

Take `CCCCC[C@H](O)/C=C/[C@H]1[C@H](O)CC(=O)[C@@H]1CCCCCCC(=O)O` [ALPROSTADIL]: on Thromboxane A2 receptor, the AC50 is > 10 µM.

Take `CN(C)CC/C=C1/c2ccccc2Sc2ccc(Cl)cc21` [CHLORPROTHIXENE]: the concentration at half-maximal activity (AC50) on D(3) dopamine receptor was 0.003 µM.

For `O=C(O)CN(CCN(CC(=O)O)CC(=O)O)CC(=O)O` [EDETIC ACID], the half-maximal activity concentration (AC50) on Acetylcholinesterase was > 30 µM.

Consider `COc1ccc2c3c1O[C@H]1C[C@@H](O)C=C[C@@]31CCN(C)C2` [GALANTAMINE], for which the AC50 in [1] is > 30 µM.

For the compound `CC[N+](CC)(CC)CCOc1cccc(OCC[N+](CC)(CC)CC)c1OCC[N+](CC)(CC)CC` [GALLAMINE], the half-maximal activity concentration (AC50) was 8.99 µM in [1] and > 30 µM at Acetylcholinesterase.

For `Oc1ccccc1` [PHENOL], the AC50 (in test [2]; in test [3]; in test [4]; at D(3) dopamine receptor; at Histamine H3 receptor; in test [5]) was > 30 µM throughout. The AC50 (in test [6]; in test [7]; in [8]; in test [9]; on Acetylcholinesterase; in [10]) was > 30 µM each time. Moreover, the AC50 (on D(1A) dopamine receptor; in test [11]; at Mu-type opioid receptor) was > 30 µM in each case.

On to `CNC(=C[N+](=O)[O-])NCCSCc1ccc(CN(C)C)o1` [RANITIDINE], for which the AC50 on Adenosine receptor A3 is > 30 µM.
